Measurements as given in patent US9808423B2, “Preparation of suspension aerosol formulations” (Generics [UK] Limited, priority 2004, dated 2017).

Experiment: Sympatec laser diffraction particle size of micronized medicament
Format: physicochemical
Conditions: Sympatec laser diffraction instrument; micronized starting material of Example 10
Description: A stock solution of 16.0 g of ethanol USP and 0.0053 g of oleic acid was prepared. Into each of three 14-mL fluoropolymer (FEP-PES) coated aluminum canisters was added 7 mg of micronized salmeterol xinafoate, having a volume mean diameter (X50) of 1.6 μm as measured using a Sympatec laser diffraction instrument. To each canister was then added 10.0 g of HFA-134a, at about −70° C., and approximately 0.20 g of the stock solution. A 50-μL metering valve was crimp sealed to each canister. Each canister was sonicated for 1.5 minutes to promote mixing of the formulation and deaggregation of the medicament particles.

OCc1cc(C(O)CNCCCCCCOCCCCc2ccccc2)ccc1O (stereo not shown) [micronized salmeterol xinafoate, salmeterol xinafoate]
volume mean diameter (X50): 1.6 μm
